This passage reports inhibition in vivo and ED50 results from ChEMBL document CHEMBL3272143, “Synthesis of heteroaromatic potential beta-adrenergic antagonists by the glycidol route” (1978).

Holding throughout (type): functional
Experiment [1] concerns Canis familiaris. Put plainly: Inhibition of isoproterenol-induced increase in heart rate in bilaterally vagotomized open chest mongrel dog model at 0.1 mg/kg, iv administered 10 to 20 mins prior to and following isoproterenol challenge. To be noted: Canis lupus familiaris.
Experiment [2] concerns Canis familiaris. Nature of the experiment: Inhibition of isoproterenol-induced increase in heart rate in bilaterally vagotomized open chest mongrel dog model at 0.42 mg/kg, iv administered 10 to 20 mins prior to and following isoproterenol challenge. To be noted: Canis lupus familiaris.
In experiment [3] the test system is Canis familiaris. Nature of the experiment: Inhibition of isoproterenol-induced increase in heart rate in bilaterally vagotomized open chest mongrel dog model at 1.42 mg/kg, iv administered 10 to 20 mins prior to and following isoproterenol challenge. To be noted: Canis lupus familiaris.
The subject of experiment [4] is Canis familiaris. Nature of the experiment: Inhibition of isoproterenol-induced increase in heart rate in bilaterally vagotomized open chest mongrel dog model at 4.58 mg/kg, iv administered 10 to 20 mins prior to and following isoproterenol challenge. To be noted: Canis lupus familiaris.
For experiment [5], the system named is Canis familiaris. Nature of the experiment: Inhibition of isoproterenol-induced increase in heart rate in bilaterally vagotomized open chest mongrel dog model at 14.58 mg/kg, iv administered 10 to 20 mins prior to and following isoproterenol challenge. The settings on record: Canis lupus familiaris.
The test system of experiment [6] is Canis familiaris. Nature of the experiment: Inhibition of isoproterenol-induced decrease in diastolic blood pressure in bilaterally vagotomized open chest mongrel dog model at 0.1 mg/kg, iv administered 10 to 20 mins prior to and following isoproterenol challenge. The settings on record: Canis lupus familiaris, Artery.
For experiment [7], the system named is Canis familiaris. Put plainly: Inhibition of isoproterenol-induced decrease in diastolic blood pressure in bilaterally vagotomized open chest mongrel dog model at 0.42 mg/kg, iv administered 10 to 20 mins prior to and following isoproterenol challenge. To be noted: Canis lupus familiaris, Artery.
The subject of experiment [8] is Canis familiaris. Nature of the experiment: Inhibition of isoproterenol-induced decrease in diastolic blood pressure in bilaterally vagotomized open chest mongrel dog model at 1.42 mg/kg, iv administered 10 to 20 mins prior to and following isoproterenol challenge. The settings on record: Canis lupus familiaris, Artery.
Experiment [9] deals with Canis familiaris. Put plainly: Inhibition of isoproterenol-induced decrease in diastolic blood pressure in bilaterally vagotomized open chest mongrel dog model at 4.58 mg/kg, iv administered 10 to 20 mins prior to and following isoproterenol challenge. The settings on record: Canis lupus familiaris, Artery.
In experiment [10] the test system is Canis familiaris. Nature of the experiment: Inhibition of isoproterenol-induced decrease in diastolic blood pressure in bilaterally vagotomized open chest mongrel dog model at 14.58 mg/kg, iv administered 10 to 20 mins prior to and following isoproterenol challenge. To be noted: Canis lupus familiaris, Artery.
Experiment [11] has as its system Canis familiaris. Nature of the experiment: Inhibition of isoproterenol-induced increase in heart rate in iv dosed bilaterally vagotomized open chest mongrel dog model administered 10 to 20 mins prior to and following isoproterenol challenge. The settings on record: Canis lupus familiaris.
Experiment [12] relates to Canis familiaris. Nature of the experiment: Inhibition of isoproterenol-induced decrease in diastolic blood pressure in iv dosed bilaterally vagotomized open chest mongrel dog model administered 10 to 20 mins prior to and following isoproterenol challenge. To be noted: Canis lupus familiaris, Artery.
Experiment [13] relates to Canis familiaris. Nature of the experiment: Inhibition of isoproterenol-induced increase in heart rate in bilaterally vagotomized open chest mongrel dog model at 0.03 mg/kg, iv administered 10 to 20 mins prior to and following isoproterenol challenge. To be noted: Canis lupus familiaris.
The test system of experiment [14] is Canis familiaris. Put plainly: Inhibition of isoproterenol-induced increase in heart rate in bilaterally vagotomized open chest mongrel dog model at 0.13 mg/kg, iv administered 10 to 20 mins prior to and following isoproterenol challenge. The settings on record: Canis lupus familiaris.
Experiment [15] deals with Canis familiaris. Nature of the experiment: Inhibition of isoproterenol-induced increase in heart rate in bilaterally vagotomized open chest mongrel dog model at 0.45 mg/kg, iv administered 10 to 20 mins prior to and following isoproterenol challenge. The settings on record: Canis lupus familiaris.
Experiment [16] deals with Canis familiaris. Nature of the experiment: Inhibition of isoproterenol-induced increase in heart rate in bilaterally vagotomized open chest mongrel dog model at 1.45 mg/kg, iv administered 10 to 20 mins prior to and following isoproterenol challenge. The settings on record: Canis lupus familiaris.
The test system of experiment [17] is Canis familiaris. Put plainly: Inhibition of isoproterenol-induced increase in heart rate in bilaterally vagotomized open chest mongrel dog model at 4.61 mg/kg, iv administered 10 to 20 mins prior to and following isoproterenol challenge. The settings on record: Canis lupus familiaris.
For experiment [18], the system named is Canis familiaris. Put plainly: Inhibition of isoproterenol-induced decrease in diastolic blood pressure in bilaterally vagotomized open chest mongrel dog model at 0.03 mg/kg, iv administered 10 to 20 mins prior to and following isoproterenol challenge. To be noted: Canis lupus familiaris, Artery.
The subject of experiment [19] is Canis familiaris. Nature of the experiment: Inhibition of isoproterenol-induced decrease in diastolic blood pressure in bilaterally vagotomized open chest mongrel dog model at 0.13 mg/kg, iv administered 10 to 20 mins prior to and following isoproterenol challenge. To be noted: Canis lupus familiaris, Artery.
Experiment [20] concerns Canis familiaris. Nature of the experiment: Inhibition of isoproterenol-induced decrease in diastolic blood pressure in bilaterally vagotomized open chest mongrel dog model at 0.45 mg/kg, iv administered 10 to 20 mins prior to and following isoproterenol challenge. To be noted: Canis lupus familiaris, Artery.
Experiment [21] has as its system Canis familiaris. Put plainly: Inhibition of isoproterenol-induced decrease in diastolic blood pressure in bilaterally vagotomized open chest mongrel dog model at 1.45 mg/kg, iv administered 10 to 20 mins prior to and following isoproterenol challenge. To be noted: Canis lupus familiaris, Artery.
Experiment [22] relates to Canis familiaris. Nature of the experiment: Inhibition of isoproterenol-induced decrease in diastolic blood pressure in bilaterally vagotomized open chest mongrel dog model at 4.61 mg/kg, iv administered 10 to 20 mins prior to and following isoproterenol challenge. To be noted: Canis lupus familiaris, Artery.

By inhibition in vivo is commonly meant the drop in the measured response relative to a control, in per cent. A higher inhibition in vivo goes with strong suppression. By ED50 is commonly meant the dose at which the effect has come halfway, by size or by number of responders. Read a low ED50 as an effect at a small dose. On to `CC(C)NCC(O)COc1cc(Cl)nc(-c2ccccc2)n1` (configuration not stated), for which the inhibition in vivo at 0.1 mg/kg was found to be 3% in experiment [1] and 5% in experiment [6]. Moreover, the results for the inhibition in vivo at 0.42 mg/kg in experiment [2] and in [7] were 6% and 16.5%, respectively. In addition, the results for the inhibition in vivo at 1.42 mg/kg in experiment [3] and in experiment [8] were 18% and 10.3%, respectively. For the same compound, the inhibition in vivo at 4.58 mg/kg amounted to 16.7% in experiment [4] and 21% in [9]. Moreover, the inhibition in vivo at 14.58 mg/kg in experiment [5] came to 49%; in [10] it was 19%. Besides, the ED50 in experiment [11] and in [12] was over 14.6 mg/kg in each case.

Consider `CC(C)(C)NCC(O)COc1nnnn1-c1ccccc1` (configuration not stated), for which the values for the inhibition in vivo at 0.1 mg/kg in experiment [1] and in experiment [6] were 5.7% and 6.7%, respectively. The inhibition in vivo at 0.42 mg/kg in experiment [2] worked out at 10.5%; in experiment [7], 21.2%. Further, the inhibition in vivo at 1.42 mg/kg in [3] turned out to be 32.5%; in experiment [8], 44.8%. Besides, the figures for the inhibition in vivo at 4.58 mg/kg in experiment [4] and in experiment [9] were 63% and 76.2%, respectively. The inhibition in vivo at 14.58 mg/kg in experiment [5] was determined as 91%; in [10], 98.7%. For the same compound, the ED50 in [11] amounted to 3 mg/kg; in experiment [12], 1.5 mg/kg.

As to `CC(C)(C)NCC(O)COc1nc(-c2ccccc2)ns1` (configuration not stated), the values for the inhibition in vivo at 0.1 mg/kg in [1] and in experiment [6] were 7% and 3.7%, respectively. Besides, the inhibition in vivo at 0.42 mg/kg in experiment [2] was 5.7%; in experiment [7], 5.3%. The inhibition in vivo at 1.42 mg/kg in [3] is 9.5%; in [8] it was 16.5%. Moreover, the inhibition in vivo at 4.58 mg/kg in experiment [4] is 23.8%; in [9] it was 41.5%. Also, the inhibition in vivo at 14.58 mg/kg was 68% in experiment [5] and 100% in experiment [10]. Moreover, the figures for the ED50 in experiment [11] and in [12] were 19.3 mg/kg and 4.9 mg/kg, respectively.

With `CC(C)NCC(O)COc1cccc2ccccc12` (configuration not stated) [PROPRANOLOL], the figures for the ED50 in experiment [11] and in experiment [12] were 0.09 mg/kg and 0.06 mg/kg, respectively. Besides, the results for the inhibition in vivo at 0.03 mg/kg in experiment [13] and in [18] were 24.7% and 40.5%, respectively. Also, the inhibition in vivo at 0.13 mg/kg in experiment [14] came out at 62%; in experiment [19] it was 63.5%. Further, the inhibition in vivo at 0.45 mg/kg in experiment [15] was 85.2%; in experiment [20], 80.8%. The figures for the inhibition in vivo at 1.45 mg/kg in [16] and in [21] were 95.8% and 90.7%, respectively. Also, the results for the inhibition in vivo at 4.61 mg/kg in experiment [17] and in experiment [22] were 98.4% and 96.6%, respectively.

With `Cc1nsc(OCC(O)CNC(C)(C)C)n1` (configuration not stated), the inhibition in vivo at 0.1 mg/kg in [1] is 15%; in experiment [6], 7.7%. Moreover, the inhibition in vivo at 0.42 mg/kg in experiment [2] came out at 24.2%; in experiment [7], 12.8%. The inhibition in vivo at 1.42 mg/kg in [3] turned out to be 39.5%; in experiment [8] it was 35.5%. The results for the inhibition in vivo at 4.58 mg/kg in experiment [4] and in experiment [9] were 59.8% and 55.5%, respectively. In addition, the values for the inhibition in vivo at 14.58 mg/kg in experiment [5] and in experiment [10] were 92.3% and 85.3%, respectively. Also, the values for the ED50 in experiment [11] and in experiment [12] were 3.6 mg/kg and 3.5 mg/kg, respectively.

Turning to `CC(C)(C)NCC(O)COc1ncns1` (configuration not stated), the inhibition in vivo at 0.1 mg/kg is 23.5% in [1] and 3% in experiment [6]. Moreover, the inhibition in vivo at 0.42 mg/kg is 49.5% in experiment [2] and 1% in experiment [7]. Moreover, the inhibition in vivo at 1.42 mg/kg in experiment [3] was 70%; in [8], 13.5%. In addition, the inhibition in vivo at 4.58 mg/kg in experiment [4] worked out at 91%; in experiment [9], 50%. Further, the inhibition in vivo at 14.58 mg/kg turned out to be 97.5% in experiment [5] and 76.5% in experiment [10]. Also, the ED50 was 0.4 mg/kg in experiment [11] and 5.7 mg/kg in [12].
